Reference: patent US9522883B2, “Glycosidase inhibitors and uses thereof” (Alectos Therapeutics Inc., priority 2012, dated 2016)

Biological target: human O-GlcNAcase (Homo sapiens (Human), UniProt O60502)
Test: Assay for determination of KI values for inhibition of O-GlcNAcase activity (fluorescence-based hOGA)
Assay type: biochemical
Conditions: purified human O-GlcNAcase, 4-Methylumbelliferyl N-acetyl-β-D-glucosaminide substrate, pH 7.0, Cheng-Prusoff
Description: Enzymatic reactions were carried out in a reaction containing 50 mM NaH2PO4, 100 mM NaCl and 0.1% BSA (pH 7.0) using 2 mM 4-Methylumbelliferyl N-acetyl-β-D-glucosaminide dihydrate (Sigma M2133) dissolved in ddH2O, as a substrate. The amount of purified human O-GlcNAcase enzyme used in the reaction was 0.7 nM. Test compound of varying concentrations was added to the enzyme prior to initiation of the reaction. The reaction was performed at room temperature in a 96-well plate and was initiated with the addition of substrate. The production of fluorescent product was measured every 60 sec for 45 min with a Tecan Infinite M200 plate-reader with excitation at 355 nm and emission detected at […], with 4-Methylumbelliferone (Sigma M1381) used to produce a standard curve. The slope of product production was determined for each concentration of compound tested and plotted, using standard curve fitting algorithms for sigmoidal dose response curves. The values for a four parameter logistic curve fit of the data were determined.
KI values were determined using the Cheng-Prusoff equation; the Km of O-GlcNAcase for substrate was 0.2 mM.

Sequence of human O-GlcNAcase (O60502 whole entry): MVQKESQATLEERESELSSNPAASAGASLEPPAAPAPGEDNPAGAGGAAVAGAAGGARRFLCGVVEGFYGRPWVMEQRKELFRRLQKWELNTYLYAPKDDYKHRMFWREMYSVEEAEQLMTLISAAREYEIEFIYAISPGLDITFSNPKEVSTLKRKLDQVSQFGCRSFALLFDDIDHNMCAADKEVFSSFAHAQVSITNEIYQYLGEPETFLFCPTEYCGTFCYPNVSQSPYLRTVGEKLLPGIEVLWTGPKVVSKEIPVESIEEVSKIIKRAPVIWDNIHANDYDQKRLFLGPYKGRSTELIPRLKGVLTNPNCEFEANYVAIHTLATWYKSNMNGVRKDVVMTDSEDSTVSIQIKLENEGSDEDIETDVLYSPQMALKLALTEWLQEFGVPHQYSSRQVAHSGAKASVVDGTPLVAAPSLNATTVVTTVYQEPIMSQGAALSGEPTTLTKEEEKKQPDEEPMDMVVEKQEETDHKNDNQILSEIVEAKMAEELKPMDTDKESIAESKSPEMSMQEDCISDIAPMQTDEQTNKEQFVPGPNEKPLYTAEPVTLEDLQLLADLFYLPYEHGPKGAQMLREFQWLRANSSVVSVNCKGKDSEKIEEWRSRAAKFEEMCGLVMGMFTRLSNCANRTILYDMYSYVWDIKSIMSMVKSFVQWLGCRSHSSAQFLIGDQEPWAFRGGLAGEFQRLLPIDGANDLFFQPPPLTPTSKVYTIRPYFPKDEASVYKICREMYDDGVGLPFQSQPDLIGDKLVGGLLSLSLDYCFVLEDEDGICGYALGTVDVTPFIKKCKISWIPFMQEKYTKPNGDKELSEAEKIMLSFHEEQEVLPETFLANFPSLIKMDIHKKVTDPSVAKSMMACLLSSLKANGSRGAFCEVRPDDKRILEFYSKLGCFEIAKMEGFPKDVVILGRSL

SMILES: CC(=O)N[C@H]1CN(CCCCc2ccccc2)[C@H](CO)[C@@H](O)[C@@H]1O [Example 1, N-((3S,4R,5R,6R)-4,5-dihydroxy-6-(hydroxymethyl)-1-(4-phenylbutyl)piperidin-3-yl)acetamide]
- Ki: 2580 nM
